Experiments:
[1] = target: T1, methionine adenosyltransferase 1 (Mus musculus, UniProt Q91X83); assay: LC/MS/MS identification of proteins from mouse liver extracts labeled with MTS-I-49; type: biochemical
T1 construct: from tissue; host or cells: mouse liver extract
Source text: (§1) (1991) Irreversible inhibition of serine proteases by peptide derivatives of (alpha-aminoalkyl)phosphonate diphenyl esters. Biochemistry 30, 485-493). However, it has not been used for any proteomic applications. We used MTS-I-49 to label mouse liver extracts and analyze the labeled sample by both SDS-PAGE (FIG. 5B) and by direct chemical cleavage or on bead digestion.
(§2) After enrichment on immobilized avidin, each of the three labeled proteomes (FIG. 5b) was divided into two aliquots. One was prepared for LC-MS/MS analysis by “on bead” digestion, while the other was chemically eluted and digested “in solution.” Proteins identified in each tissue lysate are listed with their accession number and theoretical molecular weight (MW). To compare both approaches, the number of identified peptides and percentage of amino acid sequence coverage is listed for each protein.
(§3) Proteins in the above Table were identified by LC/MS/MS analysis of on bead digested or chemically eluted proteins from mouse liver extracts labeled with MTS-I-49. […] BLAST database searching identified it as liver carboxylesterase 4. A number of additional endogenously biotinylated proteins were identified in the on-bead digested sample.

[2] = target: T2, carbamoyl-phosphate synthase 1 (Mus musculus, UniProt Q8C196); assay: as above; type: biochemical
T2 construct: from tissue; host or cells: mouse liver extract
T2 sequence (Q8C196 39-1500): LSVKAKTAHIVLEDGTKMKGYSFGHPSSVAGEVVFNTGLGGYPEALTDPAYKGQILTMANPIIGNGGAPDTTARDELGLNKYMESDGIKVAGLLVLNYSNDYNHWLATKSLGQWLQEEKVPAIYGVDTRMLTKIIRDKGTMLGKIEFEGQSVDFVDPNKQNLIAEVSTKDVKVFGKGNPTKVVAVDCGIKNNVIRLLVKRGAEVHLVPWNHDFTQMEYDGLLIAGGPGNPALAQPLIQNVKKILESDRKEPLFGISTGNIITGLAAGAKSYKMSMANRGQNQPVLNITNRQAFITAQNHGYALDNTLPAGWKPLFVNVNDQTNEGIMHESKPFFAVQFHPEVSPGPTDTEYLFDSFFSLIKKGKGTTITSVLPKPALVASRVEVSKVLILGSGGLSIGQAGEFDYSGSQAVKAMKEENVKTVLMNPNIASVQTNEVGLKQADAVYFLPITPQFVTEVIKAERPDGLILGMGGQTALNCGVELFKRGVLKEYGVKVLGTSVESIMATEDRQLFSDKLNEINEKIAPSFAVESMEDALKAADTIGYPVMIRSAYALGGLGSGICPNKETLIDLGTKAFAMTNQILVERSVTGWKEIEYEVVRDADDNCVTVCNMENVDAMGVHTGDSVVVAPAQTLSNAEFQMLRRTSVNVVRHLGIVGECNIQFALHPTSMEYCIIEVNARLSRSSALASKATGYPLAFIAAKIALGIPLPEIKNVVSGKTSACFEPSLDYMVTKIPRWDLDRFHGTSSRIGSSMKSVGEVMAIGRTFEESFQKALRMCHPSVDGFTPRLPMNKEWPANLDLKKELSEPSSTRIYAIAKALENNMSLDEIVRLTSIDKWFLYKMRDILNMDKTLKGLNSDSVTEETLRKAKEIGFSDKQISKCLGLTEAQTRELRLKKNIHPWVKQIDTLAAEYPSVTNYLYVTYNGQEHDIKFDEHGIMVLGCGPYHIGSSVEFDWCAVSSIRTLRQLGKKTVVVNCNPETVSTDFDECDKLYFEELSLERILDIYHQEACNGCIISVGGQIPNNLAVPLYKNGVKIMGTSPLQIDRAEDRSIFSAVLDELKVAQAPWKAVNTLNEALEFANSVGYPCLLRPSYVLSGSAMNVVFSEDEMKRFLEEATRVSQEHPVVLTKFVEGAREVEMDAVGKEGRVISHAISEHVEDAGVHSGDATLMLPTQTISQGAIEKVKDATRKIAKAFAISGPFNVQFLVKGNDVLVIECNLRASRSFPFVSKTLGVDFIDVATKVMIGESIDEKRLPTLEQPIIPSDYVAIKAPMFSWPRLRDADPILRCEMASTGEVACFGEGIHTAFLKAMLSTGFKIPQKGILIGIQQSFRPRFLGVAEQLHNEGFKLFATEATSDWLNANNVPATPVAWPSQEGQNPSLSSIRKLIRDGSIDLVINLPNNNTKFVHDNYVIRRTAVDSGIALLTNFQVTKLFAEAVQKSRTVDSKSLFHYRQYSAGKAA
Source text: as §1, §2, §3

[3] = chemically eluted, digested in solution

T1 sequence (Q91X83 whole entry): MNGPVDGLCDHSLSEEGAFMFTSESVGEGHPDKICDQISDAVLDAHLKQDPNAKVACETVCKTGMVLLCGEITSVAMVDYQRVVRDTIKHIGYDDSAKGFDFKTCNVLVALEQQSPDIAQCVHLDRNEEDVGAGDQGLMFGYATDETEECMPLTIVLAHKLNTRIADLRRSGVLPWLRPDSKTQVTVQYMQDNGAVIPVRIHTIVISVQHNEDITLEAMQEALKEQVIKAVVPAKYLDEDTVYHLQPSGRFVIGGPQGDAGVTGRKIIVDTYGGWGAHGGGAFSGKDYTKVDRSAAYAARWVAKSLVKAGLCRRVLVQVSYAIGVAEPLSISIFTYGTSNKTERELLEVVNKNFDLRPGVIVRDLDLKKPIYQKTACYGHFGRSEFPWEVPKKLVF

C[C@H](NC(=O)c1ccc(N=Nc2cc(CCNC(=O)CCCC[C@@H]3SC[C@@H]4NC(=O)N[C@@H]43)ccc2O)cc1)C(=O)N[C@@H](C)C(=O)NC(Cc1ccccc1)P(=O)(Oc1ccccc1)Oc1ccccc1 (stereo partly drawn) [MTS-I-49]
Chemical Cleavage, number of identified peptides [1, 3]: 0 | On Bead Digestion, amino acid sequence coverage ([1]; on bead digestion): 9% | On Bead Digestion, number of identified peptides ([1]; on bead digestion): 2 | Chemical Cleavage, number of identified peptides [2, 3]: 0 | On Bead Digestion, amino acid sequence coverage ([2]; on bead digestion): 2 (2%) | On Bead Digestion, number of identified peptides ([2]; on bead digestion): 2 (2%)
